This is an account of results in ChEMBL document CHEMBL4052714, “Synthesis and antibacterial activity of novel 4″-O-(1-aralkyl-1,2,3-triazol-4-methyl-carbamoyl) azithromycin analogs” (2017).

Common to all, as to format: functional
Assay [1] relates to Staphylococcus aureus. Briefly: Antibacterial activity against erythromycin-susceptible Staphylococcus aureus ATCC 25923.
Assay [2] has as its system Streptococcus pneumoniae. Briefly: Antibacterial activity against erythromycin-susceptible Streptococcus pneumoniae ATCC 49619.
Assay [3] has as its system Staphylococcus aureus. Nature of the assay: Antibacterial activity against methicillin-susceptible Staphylococcus aureus ATCC 29213.
The subject of assay [4] is Streptococcus pyogenes. Nature of the assay: Antibacterial activity against erythromycin-susceptible Streptococcus pyogenes isolate S2.
Assay [5] relates to Streptococcus pyogenes. Nature of the assay: Antibacterial activity against erythromycin-resistant Streptococcus pyogenes isolate R2.
Assay [6] has as its system Streptococcus pneumoniae. Nature of the assay: Antibacterial activity against erythromycin-resistant Streptococcus pneumoniae B1 expressing ermB gene.
For assay [7], the system named is Streptococcus pneumoniae. Nature of the assay: Antibacterial activity against erythromycin-resistant Streptococcus pneumoniae A22072 expressing mefA gene.
Assay [8] concerns Streptococcus pneumoniae. Briefly: Antibacterial activity against erythromycin-resistant Streptococcus pneumoniae AB11 expressing ermB/mefA gene.
The test system of the next assay is Escherichia coli. Nature of the assay: Antibacterial activity against Escherichia coli ATCC 25922.
For another assay, the system named is Pseudomonas aeruginosa. Briefly: Antibacterial activity against Pseudomonas aeruginosa ATCC 27853.

Converted amounts (≈) assume the structure as drawn.

Regarding `CC[C@H]1OC(=O)[C@H](C)[C@@H](O[C@H]2C[C@@](C)(OC)[C@@H](OC(=O)NCc3cn(Cc4c(Cl)cccc4Cl)nn3)[C@H](C)O2)[C@H](C)[C@@H](O[C@@H]2O[C@H](C)C[C@H](N(C)C)[C@H]2O)[C@](C)(O)C[C@@H](C)CN(C)[C@H](C)[C@@H](O)[C@]1(C)O`, the MIC in the assay on Staphylococcus aureus [1] turned out to be 1 µg/mL (≈ 0.969 µM); in the assay with Streptococcus pneumoniae [2], 0.5 µg/mL (≈ 0.484 µM); in the assay with Staphylococcus aureus [3], 16 µg/mL (≈ 15.5 µM); in the assay with Streptococcus pyogenes [4] it was 0.03 µg/mL (≈ 0.0291 µM); in the assay with Streptococcus pyogenes [5], 32 µg/mL (≈ 31 µM); with Streptococcus pneumoniae [6], 0.5 µg/mL (≈ 0.484 µM). The MIC in the assay on Streptococcus pneumoniae [7] was 0.5 µg/mL (≈ 0.484 µM); in the assay on Streptococcus pneumoniae [8], 0.5 µg/mL (≈ 0.484 µM); in the assay with Escherichia coli it was 32 µg/mL (≈ 31 µM); in the assay with Pseudomonas aeruginosa, 32 µg/mL (≈ 31 µM).

Turning to `CC[C@H]1OC(=O)[C@H](C)[C@@H](O[C@H]2C[C@@](C)(OC)[C@@H](OC(=O)NCc3cn(Cc4cccc(C)c4)nn3)[C@H](C)O2)[C@H](C)[C@@H](O[C@@H]2O[C@H](C)C[C@H](N(C)C)[C@H]2O)[C@](C)(O)C[C@@H](C)CN(C)[C@H](C)[C@H]2OC(=O)O[C@@]21C`, the MIC stood at 2 µg/mL (≈ 1.99 µM) with Staphylococcus aureus [1]; 1 µg/mL (≈ 0.997 µM) against Streptococcus pneumoniae [2]; 32 µg/mL (≈ 31.9 µM) against Staphylococcus aureus [3]; 0.25 µg/mL (≈ 0.249 µM) against Streptococcus pyogenes [4]; 64 µg/mL (≈ 63.8 µM) with Streptococcus pyogenes [5]; 4 µg/mL (≈ 3.99 µM) with Streptococcus pneumoniae [6]. The MIC in the assay on Streptococcus pneumoniae [7] came to 2 µg/mL (≈ 1.99 µM); in the assay with Streptococcus pneumoniae [8], 2 µg/mL (≈ 1.99 µM); in the assay with Escherichia coli, 128 µg/mL (≈ 128 µM); against Pseudomonas aeruginosa, 64 µg/mL (≈ 63.8 µM).

Regarding `CC[C@H]1OC(=O)[C@H](C)[C@@H](O[C@H]2C[C@@](C)(OC)[C@@H](OC(=O)NCc3cn(Cc4ccccc4)nn3)[C@H](C)O2)[C@H](C)[C@@H](O[C@@H]2O[C@H](C)C[C@H](N(C)C)[C@H]2O)[C@](C)(O)C[C@@H](C)CN(C)[C@H](C)[C@H]2OC(=O)O[C@@]21C`, the MIC is 4 µg/mL (≈ 4.04 µM) with Staphylococcus aureus [1]; 0.5 µg/mL (≈ 0.505 µM) against Streptococcus pneumoniae [2]; 32 µg/mL (≈ 32.3 µM) against Staphylococcus aureus [3]; 0.06 µg/mL (≈ 0.0607 µM) in the assay on Streptococcus pyogenes [4]; 128 µg/mL (≈ 129 µM) in the assay on Streptococcus pyogenes [5]; 8 µg/mL (≈ 8.09 µM) with Streptococcus pneumoniae [6]. Moreover, the MIC was found to be 8 µg/mL (≈ 8.09 µM) in the assay with Streptococcus pneumoniae [7], 4 µg/mL (≈ 4.04 µM) against Streptococcus pneumoniae [8], 128 µg/mL (≈ 129 µM) against Escherichia coli and 64 µg/mL (≈ 64.7 µM) in the assay on Pseudomonas aeruginosa.

In the case of `CC[C@H]1OC(=O)[C@H](C)[C@@H](O[C@H]2C[C@@](C)(OC)[C@@H](OC(=O)NCc3cn(Cc4ccc(C)cc4)nn3)[C@H](C)O2)[C@H](C)[C@@H](O[C@@H]2O[C@H](C)C[C@H](N(C)C)[C@H]2O)[C@](C)(O)C[C@@H](C)CN(C)[C@H](C)[C@H]2OC(=O)O[C@@]21C`, the MIC in the assay with Staphylococcus aureus [1] is 4 µg/mL (≈ 3.99 µM); in the assay on Streptococcus pneumoniae [2], 1 µg/mL (≈ 0.997 µM); with Staphylococcus aureus [3] it was 64 µg/mL (≈ 63.8 µM); with Streptococcus pyogenes [4] it was 0.25 µg/mL (≈ 0.249 µM); against Streptococcus pyogenes [5] it was 64 µg/mL (≈ 63.8 µM); in the assay with Streptococcus pneumoniae [6] it was 2 µg/mL (≈ 1.99 µM). Moreover, the MIC was found to be 1 µg/mL (≈ 0.997 µM) in the assay with Streptococcus pneumoniae [7], 1 µg/mL (≈ 0.997 µM) against Streptococcus pneumoniae [8], 128 µg/mL (≈ 128 µM) in the assay with Escherichia coli and 64 µg/mL (≈ 63.8 µM) in the assay with Pseudomonas aeruginosa.

As to `CC[C@H]1OC(=O)[C@H](C)[C@@H](O[C@H]2C[C@@](C)(OC)[C@@H](OC(=O)NCc3cn(Cc4ccc([N+](=O)[O-])cc4)nn3)[C@H](C)O2)[C@H](C)[C@@H](O[C@@H]2O[C@H](C)C[C@H](N(C)C)[C@H]2O)[C@](C)(O)C[C@@H](C)CN(C)[C@H](C)[C@@H](O)[C@]1(C)O`, the MIC in the assay on Staphylococcus aureus [1] stood at 1 µg/mL (≈ 0.992 µM); in the assay with Streptococcus pneumoniae [2] it was 1 µg/mL (≈ 0.992 µM); with Staphylococcus aureus [3] it was 16 µg/mL (≈ 15.9 µM); in the assay on Streptococcus pyogenes [4], 0.03 µg/mL (≈ 0.0298 µM); in the assay with Streptococcus pyogenes [5], 64 µg/mL (≈ 63.5 µM); in the assay with Streptococcus pneumoniae [6], 1 µg/mL (≈ 0.992 µM). The MIC with Streptococcus pneumoniae [7] was determined as 2 µg/mL (≈ 1.98 µM); against Streptococcus pneumoniae [8], 1 µg/mL (≈ 0.992 µM); against Escherichia coli it was 32 µg/mL (≈ 31.7 µM); in the assay with Pseudomonas aeruginosa, 32 µg/mL (≈ 31.7 µM).

In the case of `CC[C@H]1OC(=O)[C@H](C)[C@@H](O[C@H]2C[C@@](C)(OC)[C@@H](OC(=O)NCc3cn(Cc4ccccc4C)nn3)[C@H](C)O2)[C@H](C)[C@@H](O[C@@H]2O[C@H](C)C[C@H](N(C)C)[C@H]2O)[C@](C)(O)C[C@@H](C)CN(C)[C@H](C)[C@@H](O)[C@]1(C)O`, the MIC in the assay on Staphylococcus aureus [1] is 1 µg/mL (≈ 1.02 µM); in the assay on Streptococcus pneumoniae [2], 0.25 µg/mL (≈ 0.256 µM); against Staphylococcus aureus [3], 16 µg/mL (≈ 16.4 µM); against Streptococcus pyogenes [4], 0.03 µg/mL (≈ 0.0307 µM); in the assay with Streptococcus pyogenes [5] it was 64 µg/mL (≈ 65.5 µM); with Streptococcus pneumoniae [6] it was 0.5 µg/mL (≈ 0.512 µM). For the same compound, the MIC in the assay with Streptococcus pneumoniae [7] is 0.5 µg/mL (≈ 0.512 µM); with Streptococcus pneumoniae [8], 0.5 µg/mL (≈ 0.512 µM); in the assay with Escherichia coli, 16 µg/mL (≈ 16.4 µM); with Pseudomonas aeruginosa it was 64 µg/mL (≈ 65.5 µM).

As to `CC[C@H]1OC(=O)[C@H](C)[C@@H](O[C@H]2C[C@@](C)(OC)[C@@H](OC(=O)NCc3cn(Cc4ccccc4Cl)nn3)[C@H](C)O2)[C@H](C)[C@@H](O[C@@H]2O[C@H](C)C[C@H](N(C)C)[C@H]2O)[C@](C)(O)C[C@@H](C)CN(C)[C@H](C)[C@@H](O)[C@]1(C)O`, the MIC is 1 µg/mL (≈ 1 µM) in the assay on Staphylococcus aureus [1]; 0.25 µg/mL (≈ 0.251 µM) in the assay with Streptococcus pneumoniae [2]; 8 µg/mL (≈ 8.02 µM) in the assay on Staphylococcus aureus [3]; 0.03 µg/mL (≈ 0.0301 µM) in the assay with Streptococcus pyogenes [4]; 64 µg/mL (≈ 64.1 µM) against Streptococcus pyogenes [5]; 1 µg/mL (≈ 1 µM) against Streptococcus pneumoniae [6]. Moreover, the MIC in the assay on Streptococcus pneumoniae [7] was determined as 0.25 µg/mL (≈ 0.251 µM); against Streptococcus pneumoniae [8], 0.5 µg/mL (≈ 0.501 µM); in the assay with Escherichia coli it was 128 µg/mL (≈ 128 µM); against Pseudomonas aeruginosa, 32 µg/mL (≈ 32.1 µM).

The MIC is the lowest concentration that inhibits growth of the organism.
